# Patent publication US9480259B2, “Pyrazolopyrans having herbicidal and pharmaceutical properties” (BASF SE, priority 2012, dated 2016)
# Target: Arabidopsis thaliana SHMT
# Experiment: SHMT activity assay (ED50 SHMT), coupled with N5,N10-CH2-THF dehydrogenase, NADH at 340 nm
# Assay type: biochemical
# Summary of the method: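 His-tagged SHMT purified on Ni-NTA. NADH formation followed at 340 nm for 30 min; ED50 from inhibition of initial velocity.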
# [1] = Table 2, values given as upper bounds
# [2] = Arabidopsis thaliana SHMT enzyme assay, values given as upper bounds
# [3] = inhibition of initial velocity of Arabidopsis thaliana SHMT
# [4] = Table 2, Arabidopsis thaliana SHMT enzyme assay, values given as upper bounds
compound,measurement,setting,value
COC(=O)c1cc(C(=O)OC)cc(-c2cc(C#N)cc(C3(C4CCC4)C(C#N)=C(N)Oc4[nH]nc(C)c43)c2)c1 (stereo not shown) [Compound 2.549],EC50,[1],< 100 nM
CCCC1(c2cc(Cl)cc(Cl)c2)C(C#N)=C(N)Oc2[nH]nc(C)c21 (stereo not shown) [Compound 2.89.],EC50,[1],< 1000 nM
CC(=O)N(C)c1cc(C#N)cc(C2(C(C)C)C(C#N)=C(N)Oc3[nH]nc(C)c32)c1 (stereo not shown) [Compound 2.553],EC50,[1],< 10 nM
CCC1(c2cc(F)cc(Br)c2)C(C#N)=C(N)Oc2[nH]nc(C)c21 (racemic) [Compound 2.467],EC50,[1],< 100 nM
Cc1n[nH]c2c1C(c1cc(C#N)cc(C#N)c1)(C1CC(F)C1)C(C#N)=C(N)O2 (stereo not shown) [Compound 2.714],EC50,[2],< 100 nM
CCC1(c2cc(C(F)(F)F)cc(C(F)(F)F)c2)C(C#N)=C(N)Oc2[nH]nc(C(F)F)c21 (stereo not shown) [Compound 2.166.],EC50,[1],< 100 nM
Cc1n[nH]c2c1C(c1cc(C#N)cc(N(C)C(=O)c3cccc(C(=O)O)c3)c1)(C(C)C)C(C#N)=C(N)O2 (stereo not shown) [Compound 2.717],EC50,[2],< 100 nM
Cc1n[nH]c2c1C(c1cc(C#N)cc(OCc3nnn[nH]3)c1)(C1CCC1)C(C#N)=C(N)O2 (stereo not shown) [Compound 2.475],EC50,[1],< 10 nM
CCC1(c2cc(C)co2)C(C#N)=C(N)Oc2[nH]nc(C)c21 (stereo not shown) [Compound 4.79],EC50,[3],< 10000 nM
COC(=O)c1cc(C(=O)O)cc(-c2cc(C#N)cc(C3(C4CCC4)C(C#N)=C(N)Oc4[nH]nc(C)c43)c2)c1 (stereo not shown) [Compound 2.571],EC50,[1],< 100 nM
COc1cccc(Oc2cc(Cl)cc(C3(C4CCC4)C(C#N)=C(N)Oc4[nH]nc(C)c43)c2)c1 (stereo not shown) [Compound 2.238],EC50,[4],< 10 nM
COCc1n[nH]c2c1C(c1cccc(C(F)(F)F)c1)(C1CCC1)C(C#N)=C(N)O2 (stereo not shown) [Compound 2.196.],EC50,[1],< 1000 nM
CC(C)C1(c2cc(Cl)cc(C(F)(F)F)c2)C(C#N)=C(N)Oc2[nH]ncc21 (stereo not shown) [Compound 2.315],EC50,[4],< 10 nM
Cc1n[nH]c2c1C(c1cc(C#N)cc(NS(C)(=O)=O)c1)(C1CCC1)C(C#N)=C(N)O2 (stereo not shown) [Compound 2.704],EC50,[2],< 100 nM
Cc1cccc(Oc2cc(Cl)cc(C3(C4CCC4)C(C#N)=C(N)Oc4[nH]nc(C)c43)c2)c1 (stereo not shown) [Compound 2.239],EC50,[4],< 100 nM
Cc1ccc2cc(C3(C4CCC4)C(C#N)=C(N)Oc4[nH]nc(C)c43)cc(C(F)(F)F)c2n1 (stereo not shown) [Compound 4.19],EC50,[3],< 10 nM
Cc1n[nH]c2c1C(c1ccc3c(c1)nnn3C)(C1CCC1)C(C#N)=C(N)O2 (stereo not shown) [Compound 4.49],EC50,[3],< 100 nM
Cc1n[nH]c2c1C(c1cc3cc(Cl)ccc3o1)(C1CCC1)C(C#N)=C(N)O2 (stereo not shown) [Compound 4.7],EC50,[3],< 10 nM
Cc1n[nH]c2c1C(c1cc(F)cc(Cl)c1)(C1CCC1)C(C#N)=C(N)O2 (stereo not shown) [Compound 2.157.],EC50,[1],< 100 nM
CCC1(c2cccc(Br)c2)C(C#N)=C(N)Oc2[nH]nc(C)c21 (stereo not shown) [Compound 2.4.],EC50,[1],< 1000 nM
CCC1(c2cc(F)cc(F)c2F)C(C#N)=C(N)Oc2[nH]nc(C)c21 (stereo not shown) [Compound 3.4],EC50,[3],< 10000 nM
N#CC1=C(N)Oc2[nH]ncc2C1(c1cc(Cl)cc(-c2nccs2)c1)C1CCC1 (stereo not shown) [Compound 2.319],EC50,[4],< 10 nM
CCOC(=O)CS(=O)(=O)N(C)c1cc(C#N)cc(C2(C(C)C)C(C#N)=C(N)Oc3[nH]nc(C)c32)c1 (stereo not shown) [Compound 2.725],EC50,[2],< 100 nM
Cc1n[nH]c2c1C(c1cc(Cl)cc(Cl)c1)(C(C)F)C(C#N)=C(N)O2 (stereo not shown) [Compound 2.651],EC50,[1],< 10 nM
N#CC1=C(N)Oc2[nH]ncc2C1(c1cc(C#N)cc(C(=O)O)c1)C1CCC1 (stereo not shown) [Compound 2.372],EC50,[4],< 10000 nM
COC(=O)c1ccc(-c2cc(C#N)cc(C3(C4CCC4)C(C#N)=C(N)Oc4[nH]nc(C)c43)c2)cc1 (stereo not shown) [Compound 2.455],EC50,[1],< 100 nM
Cc1n[nH]c2c1C(c1cc(F)cc(C#N)c1)(C1CCC1)C(C#N)=C(N)O2 (stereo not shown) [Compound 2.258],EC50,[4],< 10 nM
CCOc1n[nH]c2c1C(c1cc(Br)cc(C#N)c1)(C1CCC1)C(C#N)=C(N)O2 (stereo not shown) [Compound 2.389],EC50,[4],< 10 nM
Cc1n[nH]c2c1C(c1ccc(Cl)c(Cl)c1)(C1CCCCC1)C(C#N)=C(N)O2 (stereo not shown) [Compound 2.212.],EC50,[1],< 10000 nM
COc1ccc(Oc2cc(Cl)cc(C3(C4CCC4)C(C#N)=C(N)Oc4[nH]ncc43)c2)cc1 (stereo not shown) [Compound 2.343],EC50,[4],< 10 nM
Cc1n[nH]c2c1C(c1ccc(C(=O)O)c(Cl)c1)(C1CCC1)C(C#N)=C(N)O2 (stereo not shown) [Compound 2.594],EC50,[1],< 1000 nM
N#CC1=C(N)Oc2[nH]nc(C(F)F)c2C1(c1cc(Cl)cc(Cl)c1)C1CCC1 (stereo not shown) [Compound 2.168.],EC50,[1],< 100 nM
Cc1n[nH]c2c1C(c1cc(Cl)cc(OC(F)(F)F)c1)(C1CCC1)C(C#N)=C(N)O2 (stereo not shown) [Compound 2.266],EC50,[4],< 10 nM
CCCCCCOc1ccc(C2(CC)C(C#N)=C(N)Oc3[nH]nc(C)c32)cc1 (stereo not shown) [Compound 2.36.],EC50,[1],< 10000 nM
CCC1(c2cccc(F)c2)C(C#N)=C(N)Oc2[nH]nc(C)c21 (racemic) [Compound 2.9.],EC50,[1],< 1000 nM
Cc1n[nH]c2c1C(c1ccc(Cl)cc1)(C(C)C)C(C#N)=C(N)O2 (stereo not shown) [Compound 2.143.],EC50,[1],< 1000 nM
CCc1n[nH]c2c1C(c1cc(Cl)cc(Cl)c1)(C1CCC1)C(C#N)=C(N)O2 (stereo not shown) [Compound 2.155.],EC50,[1],< 100 nM
CCC1(c2ccc(OS(=O)(=O)c3ccc(Cl)cc3)c(C)c2)C(C#N)=C(N)Oc2[nH]nc(C)c21 (stereo not shown) [Compound 2.57.],EC50,[1],< 10000 nM
CCC1(c2ccc(C(C)(C)C)cc2)C(C#N)=C(N)Oc2[nH]nc(C)c21 (stereo not shown) [Compound 2.7.],EC50,[1],< 10000 nM
Cc1n[nH]c2c1C(c1ccc(OCCc3nnn[nH]3)c(Cl)c1)(C1CCC1)C(C#N)=C(N)O2 (stereo not shown) [Compound 2.646],EC50,[1],< 10 nM
CCc1n[nH]c2c1C(c1cccc(Cl)c1)(C1CCC1)C(C#N)=C(N)O2 (stereo not shown) [Compound 2.173.],EC50,[1],< 100 nM
CCC1(c2ccc(F)cc2)C(C#N)=C(N)Oc2[nH]nc(C)c21 (stereo not shown) [Compound 2.2.],EC50,[1],< 10000 nM
COc1ccc2cc(C3(C4CCC4)C(C#N)=C(N)Oc4[nH]nc(CO)c43)ccc2c1 (stereo not shown) [Compound 4.77],EC50,[3],< 1000 nM
Cc1n[nH]c2c1C(c1cc(Cl)cc(C#N)c1)(C1(F)CC1)C(C#N)=C(N)O2 (racemic) [Compound 2.379],EC50,[4],< 10 nM
Cc1n[nH]c2c1C(c1cc(C(F)(F)F)cc(C(F)(F)F)c1)(C1CCC1)C(C#N)=C(N)O2 (stereo not shown) [Compound 2.191.],EC50,[1],< 100 nM
COC(=O)c1cccc(-c2cc(Cl)cc(C3(C4CCC4)C(C#N)=C(N)Oc4[nH]nc(OC)c43)c2)c1 (stereo not shown) [Compound 2.457],EC50,[1],< 10 nM
CCCC1(c2cc(C#N)cc(C#N)c2)C(C#N)=C(N)Oc2[nH]nc(CC)c21 (stereo not shown) [Compound 2.579],EC50,[1],< 100 nM
Cc1n[nH]c2c1C(c1ccc(OCCC#N)c(Cl)c1)(C1CCC1)C(C#N)=C(N)O2 (stereo not shown) [Compound 2.645],EC50,[1],< 10 nM
Cc1n[nH]c2c1C(c1cc(C#N)cc(-c3cc(C(=O)O)co3)c1)(C1CCC1)C(C#N)=C(N)O2 (stereo not shown) [Compound 2.684],EC50,[2],< 10 nM
COC(=O)c1csc(C2(C3CCC3)C(C#N)=C(N)Oc3[nH]nc(C)c32)c1 (stereo not shown) [Compound 4.30],EC50,[3],< 10 nM
CCCCC1(c2cc(Cl)cc(Cl)c2)C(C#N)=C(N)Oc2[nH]nc(C)c21 (racemic) [Compound 2.92.],EC50,[1],< 10000 nM
Cc1n[nH]c2c1C(c1cc(C#N)cc(-c3ccc(C(=O)O)s3)c1)(C1(F)COC1)C(C#N)=C(N)O2 (stereo not shown) [Compound 2.680],EC50,[2],< 1000 nM
Cc1n[nH]c2c1C(c1cc(C#N)cc(OCC(=O)O)c1)(C1CCC1)C(C#N)=C(N)O2 (stereo not shown) [Compound 2.625],EC50,[1],< 100 nM
Cc1n[nH]c2c1C(c1ccc(Cl)c(Cl)c1)(C(C)C)C(C#N)=C(N)O2 (stereo not shown) [Compound 2.135.],EC50,[1],< 100 nM
COc1n[nH]c2c1C(c1cc(C#N)cc(C(F)(F)F)c1)(C1CC1)C(C#N)=C(N)O2 (stereo not shown) [Compound 2.392],EC50,[4],< 100 nM
Cc1ccc(Oc2cc(Cl)cc(C3(C4CCC4)C(C#N)=C(N)Oc4[nH]nc(C)c43)c2)cc1 (stereo not shown) [Compound 2.240],EC50,[4],< 10 nM
Cc1n[nH]c2c1C(c1ccc(Cl)s1)(C1CC1)C(C#N)=C(N)O2 (stereo not shown) [Compound 4.74],EC50,[3],< 1000 nM
Cc1n[nH]c2c1C(c1cc(Cl)cc(Oc3cccc(Cl)c3)c1)(C1CC1)C(C#N)=C(N)O2 (racemic) [Compound 2.347],EC50,[4],< 10 nM
CCCC1(c2cccc(Cl)c2)C(C#N)=C(N)Oc2[nH]nc(C)c21 (stereo not shown) [Compound 2.94.],EC50,[1],< 1000 nM
Cc1n[nH]c2c1C(c1cc(C#N)cc(N(C)C(=O)CCC#N)c1)(C1CCC1)C(C#N)=C(N)O2 (stereo not shown) [Compound 2.661],EC50,[2],< 10 nM
Cc1n[nH]c2c1C(c1ccc(C(=O)O)s1)(C1CCC1)C(C#N)=C(N)O2 (stereo not shown) [Compound 4.80],EC50,[3],< 10000 nM
Cc1n[nH]c2c1C(c1ccc(-c3ccsc3)s1)(C1CCC1)C(C#N)=C(N)O2 (racemic) [Compound 4.21],EC50,[3],< 10 nM
Cc1n[nH]c2c1C(c1ccc(F)c(C#N)c1)(C1CCC1)C(C#N)=C(N)O2 (stereo not shown) [Compound 2.269],EC50,[4],< 10 nM
Cc1n[nH]c2c1C(c1cc(Cl)c3c(c1)OCCO3)(C(C)C)C(C#N)=C(N)O2 (stereo not shown) [Compound 4.15],EC50,[3],< 10 nM
Cc1n[nH]c2c1C(c1cc(C#N)cc(N(C)C(=O)C(C)C)c1)(C1CCC1)C(C#N)=C(N)O2 (stereo not shown) [Compound 2.613],EC50,[1],< 10 nM
CCC1(CCc2ccccc2)C(C#N)=C(N)Oc2[nH]nc(C)c21 (stereo not shown) [Compound 4.76],EC50,[3],< 1000 nM
Cc1n[nH]c2c1C(c1cc(Cl)cc(C(N)=O)c1)(C1CCC1)C(C#N)=C(N)O2 (stereo not shown) [Compound 2.284],EC50,[4],< 10 nM
